As usually defined, the melting point is the temperature of the solid-liquid transition.

Regarding `O=C(Cc1ccc(Cl)cc1)OCCCOc1c(Cl)cc(OCC=C(Cl)Cl)cc1Cl`, the melting point was found to be 62.2 °C. The same measure for `Cc1c(CO)c2ccc(OCCCN3CCN(Cc4ccc(Cl)cc4)CC3)cc2oc1=O`: 135 °C.

Take `Cc1cc(-c2cccc(C(F)(F)F)c2)c2nc(OCC(F)(F)F)cnc2c1`: the melting point fell in the range of 46 to 48 °C. For `CCCCc1nc(S(=O)(=O)c2ccccc2)c(C(=O)O)n1Cc1ccc(-c2ccccc2C(=O)O)cc1` the value was 140 °C; for `CN1Cc2c(Cl)ncn2-c2cccc(Cl)c2C1=O`, 211 to 212 °C; for `O=C(NCCn1ccnc1)c1cc2cc(Cl)ccc2[nH]1`, 167 to 169 °C. Consider `CC(C)[C@H](NC(=O)N(C)Cc1cccnc1)C(=O)N[C@@H](Cc1ccccc1)C[C@H](O)[C@H](Cc1ccccc1)NC(=O)[C@@H](NC(=O)N(C)Cc1cccnc1)C(C)C`, for which the melting point lay within 193 to 196 °C.

Take `COc1cc(-c2ccccc2)nc(SCC(=O)O)n1`: the melting point fell in the range of 157 to 159 °C.

Consider `O=c1c(OCCCCl)c(-c2ccc(OCc3ccccc3)c(OCc3ccccc3)c2)oc2cc(OCc3ccccc3)ccc12`, for which the melting point fell in the range of 136 to 137 °C. For `O=C1CC(c2ccccc2)CC(=O)N1c1ccncc1` the value was 229 to 230 °C.

In turn, `CCCC(=O)Nc1cccc2c1C(=O)N(C1CCC(=O)NC1=O)C2=O` (configuration not stated) registered a melting point of 171 to 173 °C. The same measure for `CN1Cc2c(I)ncn2-c2ccc(F)c(Cl)c2C1=O`: 218 to 219 °C; for `C(=C\c1cc(/C=C/c2ccc3cc[nH]c3c2)[nH]n1)/c1ccc(N2CCOCC2)cc1`: 236 to 238 °C. The same measure for `C(=C(c1ccccc1)c1ccccc1)P(c1ccccc1)c1ccccc1`: 116 to 118 °C.

Consider `CN1CN(c2ccccc2)C2(CCN(CCCC(=O)c3ccc(F)cc3I)CC2)C1=O`, for which the melting point was in the range of 115 to 118 °C. For `O=[N+]([O-])c1ccc(Sc2ccccc2)c(CCl)c1` the value was 58 to 60 °C; for `Cn1nc(Cc2ccc(O)c(Cl)c2Cl)c(Cl)c1OC(F)F`, 127 to 128 °C. The same measure for `Cn1c([N+](=O)[O-])cnc1CS(=O)c1ccccn1` (configuration not stated): 160 °C.

On to `CCOC(=O)C(C)(C#N)Cc1cc([N+](=O)[O-])ccc1Cl` (configuration not stated), for which the melting point lay within 72 to 74 °C. The same measure for `C[C@H](C#Cc1ccc(COCc2ccc(F)cc2)s1)N(O)C(N)=O`: 90 to 91 °C. The same measure for `COc1cc(-c2cc3ccccc3[nH]2)ccc1OS(C)(=O)=O`: 194 °C; for `COCCc1nc(-c2ccc(C(F)(F)F)cc2)ncc1COc1ccc(OC(C)(C)C(=O)O)c(C)c1`: 120 °C. As for `O[C@H]1COC(c2ccc3c(c2)OCO3)=N[C@@H]1c1ccccc1` (racemic), the melting point was determined as 137 °C. For `O=c1c2ccccc2nc(-c2cc(-c3ccccc3)c(N3CCOCC3)s2)n1-c1ccccc1` the value was 218 to 220 °C. In turn, `COc1cc(C=O)cc2c1OCCC2` returned a melting point of 81 °C. Compound `CC12CCC3c4ccc(C(=O)O)cc4CCC3C1CCC2C(=O)C=Cc1ccccc1` (configuration not stated) returned a melting point of 177 to 181 °C. Take `O=C(O)C(=NOCc1ccc(F)cc1)c1csc(NC(=O)C(F)(F)F)n1`: the melting point was 180 to 182 °C. `Nc1ccc(NCCO)c(C(F)(F)F)c1` showed a melting point of 74 to 75 °C.

`c1ccc2c(N3CCOCC3)nc(N3CCOCC3)nc2c1`: the melting point is 172 to 174 °C.

In turn, `CC(C)(CC(O)(C(=O)Nc1ccc2c(c1Br)COC2=O)C(F)(F)F)c1ccccc1` (configuration not stated) showed a melting point of 187 to 194 °C. For `CCc1ccccc1N1CCN(C(=O)Nc2nc3ccccc3nc2OC)CC1` the value was 191 to 193 °C; for `COC(=O)CCCNC(=O)/C=C/C=C/c1ccccc1`, 153 to 155 °C; for `O=C(O)C1CCNC2CCCCC21` (configuration not stated), above 300 °C. The same measure for `COC1=NS(=O)(=O)N(C)C(OCCCCc2ccccc2)=N1`: 74 to 78 °C.

As for `CC(C)CCCC(C)NC(=O)CCC(=O)c1ccccc1` (configuration not stated), the melting point lay in the range of 84 to 87 °C. For `CC1CC(=O)NN=C1c1ccc(NC(=O)C2CC2)cc1` (configuration not stated), the melting point lay within 267 to 268 °C.

Compound `COC(=O)c1cc(Br)c(C=O)o1` returned a melting point of 83 to 84 °C.

On to `O=c1[nH]ncc2[nH]c(-c3ccc(OC(F)F)c(OC4CC4)c3)c(C3CC3)c12`, for which the melting point was 248 to 249 °C.

Regarding `CC1(C)OCC(Cc2ccc(C=Cc3ccc([N+](=O)[O-])cc3)cc2)O1` (configuration not stated), the melting point was in the range of 146 to 147 °C. For `COC(=O)c1c(C)c(OC)cc(O)c1C=O` the value was 118 to 119 °C. For `CCOC(=O)c1cc(=O)cc(-c2ccc(S(C)(=O)=O)cc2)o1` the value was 176 to 179 °C; for `CC(=O)NC1CCCc2sc(C(C)=O)cc21` (configuration not stated), 168 to 172 °C. The same measure for `CCOC(=S)c1c(CC)nc2ccccn12`: 71 to 73 °C; for `CC(C)=NOCc1nc2c(N)nc3cccnc3c2n1CC(C)(C)O`: 198 to 200 °C; for `N#Cc1ccc([C@@H]2CN(S(=O)(=O)c3cccc(C(=O)O)c3)C[C@@]23NC(=O)N(c2cc(Cl)cc(Cl)c2)C3=O)cc1` (relative stereo): 150 °C. In the case of `O=C1CC(=C[N+](=O)[O-])Nc2ccccc2N1c1ccccc1`, the melting point lay in the range of 231 to 234 °C. On to `CNC(=O)c1ccccc1Nc1nc(Nc2ccc3c(c2)C(C)(C)CCC(=O)N3)ncc1Cl`, for which the melting point amounted to 295 °C. `O=C(O)C(CCc1ccc(Cl)cc1)(Cn1cncn1)c1ccccc1` (configuration not stated) had a melting point of 188 to 190 °C. The same measure for `CCCCc1nc(SC)c(C(C)(O)C(=O)O)n1Cc1ccc(-c2ccccc2S(=O)(=O)NC(=O)OCc2ccccc2)cc1` (configuration not stated): 140 to 150 °C; for `CN(Cc1ccc(F)cc1)C1CCN(c2ccc([N+](=O)[O-])cc2)CC1`: 89 to 90 °C; for `C=CCN(C)c1nc(-c2ccc(OC)cc2)nc2sc(C#N)c(C)c12`: 126 to 128 °C.

`Cc1cccc(N2CCN(Cc3ccc4c(c3)NCCN4)CC2)c1` gave a melting point of 135 to 136 °C.

`COc1ccc2c(c1)Sc1ccc(F)cc1C(N1CCN(CCN3CCOC3=O)CC1)C2` (configuration not stated) came in with a melting point of 177 to 179 °C. In turn, `O=Cc1cncc2ncc(-c3ccccc3)cc12` gave a melting point of 148 °C. On to `Cc1cccc(C)c1N(CCCC(=O)NCC(=O)O)C(=O)c1ccc(Cl)cc1`, for which the melting point lay in the range of 141 to 142 °C. The same measure for `CCOP(=S)(OCC)OC(=O)/C(=N\OC(C)=O)c1csc(N)n1`: 128 to 130 °C; for `N#Cc1ccc2oc(CCc3ccc(C(=O)Nc4cnccn4)cc3)cc2c1`: 183 to 185 °C; for `O=C1C2CC=C(SC3=CCC4C(=O)N(c5ccccc5)C(=O)C4C3)CC2C(=O)N1c1ccccc1` (configuration not stated): 212 to 217 °C. For `CC(C)(C)C1NCc2ccccc2C1c1ccccc1` (configuration not stated) the value was 79 to 81 °C; for `CCN1CCc2ccc(Nc3ncc(Cl)c(N[C@@H]4CCCC[C@H]4NC(=O)C(F)(F)F)n3)cc2CC1`, 165 °C. The same measure for `COC(=O)c1ccc(OC(=O)c2cc(C)c3c(c2C)C2(CCS3(=O)=O)OCCO2)cc1`: 206 to 208 °C; for `COC(=O)C(CC(=O)c1ccccc1)SC(C)=O` (configuration not stated): 53.5 to 54 °C; for `COCC(=O)NCC(=O)N1CC1C#N` (configuration not stated): 70 to 72 °C.

`O=C(O)c1cc(-n2c(-c3ccccc3)cc3c4ccccc4ccc32)ccc1O` had a melting point of 242 °C.

On to `Cn1c(C(F)(F)F)cc(=O)n(-c2cc(OCC=C(Cl)Cl)c(Cl)cc2F)c1=O`, for which the melting point was 126 to 127 °C. The same measure for `CCOc1cc(Oc2ccc(S(C)(=O)=O)nc2)cc2cc(C3=NCC(CC(=O)NC)S3)[nH]c12` (configuration not stated): 224 to 225 °C; for `COc1ccnc(CCC(=O)O)c1`: 131 to 132 °C. The same measure for `FC(F)(F)c1ccc(Cl)cc1CN1CCNc2ncc(-c3cn[nH]c3)cc21`: 271 °C; for `COc1ccc([C@@H]2SC(c3ccccc3)=C(C)N(CCN(C)C)C(=O)[C@H]2O)cc1` (relative stereo): 132 to 133 °C. The same measure for `CCOC(=O)CC1(NC(C)=O)Cc2ccccc2C1`: 72 to 73 °C. With `COc1cccc2c1c1nc3ccccc3cc1n2C(C)=O`, the melting point is 125 to 126 °C. For `CCN1c2ncc(C3(c4ccccc4)CO3)cc2C(=O)N(C)c2ccc(Cl)nc21` (configuration not stated) the value was 105 to 107 °C; for `O=C(NC1CC1)c1cccc(-c2ccc3c(c2)C(Oc2ccc(Cl)cc2Cl)CC3)c1` (configuration not stated), 179 to 180 °C. The same measure for `CC(O)=C(C(=O)OCC(Cl)(Cl)Cl)N1C(=O)C(NC(=O)COc2ccccc2)C1SSc1nc2ccccc2s1` (configuration not stated): 129 to 130 °C; for `CN(C)CCc1c(CC(C#N)(c2ccccc2)c2ccccc2)c2ccccc2n1C`: 133 to 136 °C; for `O=C(O)CCn1cc(Cc2cccnc2)c2cc(NS(=O)(=O)c3ccc(F)cc3)ccc21`: 214 to 215 °C.

As for `CC1(C)Oc2ccc(C(=O)O)cc2S1`, the melting point was 124 to 125 °C. `Cc1nc(N)sc1S(=O)(=O)N1CCC(O)C1` (racemic) gave a melting point of 165 °C.

Turning to `Nc1cccc(-c2ccc(CCN3CC4C(C3)C4NC(=O)Cc3ccc(F)cc3)cc2)n1` (configuration not stated), the melting point was 161 to 163 °C. The compound `Cc1cc2oc(=O)c3c(c2cc1C)CCN(CCN1CC2CCC(CC2)C1)C3` had a melting point of 174 to 175 °C.

Consider `COC(COC(=O)C1=C(C)NC2=C(C(=O)CNC2)C1c1cccc(Cl)c1Cl)c1ccccc1` (configuration not stated), for which the melting point was 150 to 153 °C. For `Cc1cccc(NC(=O)NCC(=O)N(c2ccccc2)c2ccccc2)c1` the value was 240 °C; for `COc1ccc(-c2cccc([N+](=O)[O-])c2C)cn1`, 81 to 83 °C. The same measure for `Fc1ccc(C2=CC(=C(C(F)(F)F)C(F)(F)F)N=C2c2ccc(F)cc2)cc1`: 145 to 146 °C; for `O=c1c2c([nH]n1-c1ccccc1)CCCC2`: 178 to 181 °C; for `O=c1[nH]c(SCCCN2CCN(c3ccccn3)CC2)nc2sc3c(c12)CCCC3`: 190 to 192 °C.

Regarding `CC(C)c1ccc(-c2nc(-c3cccc(C(=O)O)c3)ns2)cc1`, the melting point was 165 to 167 °C.

The record behind these values is a melting point compilation (Tetko et al.; mined from patent text by program, amines drawn as free bases though some values may be those of a salt).
